# Laboratory results: patent US4783530A, “8-arylxanthines” (priority 1987, dated 1988)
# Counter-ions that a name gives are not always drawn. Like-named read-outs stand apart in the source and are kept apart here.
# Experiments:
# [1] = test system: adenosine receptors; conditions: Daly et al. J. Med. Chem. 1985; cited from earlier work
# [2] = test system: guinea pig thymocytes; conditions: less potent than 8-phenyltheophylline; NECA-induced cyclic AMP accumulation; cited from earlier work
# [3] = target: A2 receptor (Rattus norvegicus, UniProt P30543); experiment: biochemical; conditions: Schild analysis; A2 receptor mediated stimulation of adenylate cyclase, PC12 membranes
# Description: The A2 receptor mediated stimulation of adenylate cyclase was measured by a modification of the procedure of Premont et al. (Molec. Pharmacol. 16: 790, 1979). Typically, pheochromocytoma cell (PC12) membranes were thawed and added to a reaction mixture containing a final concentration of 25 mM Tris-HCl, pH 7.1, 1 mM MgCl2, 50 μM ATP, 50 μM cAMP, 0.1 mM papaverine, 0.4 IU/ml adenosine deaminase, 5 mM creatine phosphate, 0.2 mg/ml creatine phosphokinase, 10 μg membrane protein, [α^32 P]ATP (μ10^-6 DPM), 5 μM GTP, and various concentrations of adenosine agonists and/or antagonists in a final volume of 100 μl. The reaction was initiated with the addition of tissue and incubated 30° C. for 20 minutes. Reactions were terminated with 100 μl of 40 mM ATP, 1.4 mM cAMP and 2% SDS. ^32 P-cAMP isolated according to the procedure to the procedure of Salomon et al. (Adv. Cyclic Nucleotide Res. 10: 35, 1979).
# (§1) The Ki values for the test compounds were derived from Schild analysis as described by Tallarida et al. (Life Sciences 25: 637, 1979) in which the progressive shift in the dose response to a standard agonist was assessed using 3 concentrations of the test compound distributed over a 100-fold molar range. All incubations were performed in triplicate.
# [4] = target: T1, adenosine receptor sites on guinea pig cortical membranes (Cavia porcellus, UniProt P47745); experiment: Adenosine Receptor Binding Assay, inhibition of specific [^3 H]-cyclohexyladenosine ([^3 H]CHA) binding; conditions: 4 nM [^3 H]CHA, 120 minutes at 23° C.
# T1 sequence (P47745 1-326): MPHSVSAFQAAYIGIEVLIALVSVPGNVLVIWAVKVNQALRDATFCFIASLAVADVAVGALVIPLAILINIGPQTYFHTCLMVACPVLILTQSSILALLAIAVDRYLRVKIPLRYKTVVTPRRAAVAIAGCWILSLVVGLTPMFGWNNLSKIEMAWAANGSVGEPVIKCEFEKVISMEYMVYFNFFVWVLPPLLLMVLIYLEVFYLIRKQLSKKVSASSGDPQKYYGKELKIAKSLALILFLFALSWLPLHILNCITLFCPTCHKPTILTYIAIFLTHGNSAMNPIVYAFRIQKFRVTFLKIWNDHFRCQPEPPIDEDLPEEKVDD
# Description: Adenosine Receptor Binding Assay. The potency of 8-arylxanthine compounds to inhibit the specific binding of [^3 H]-cyclohexyladenosine ([^3 H]CHA) to adenosine receptor sites on guinea pig cortical membranes was examined using standard in vitro ligand binding techniques. […] Briefly, guinea pig cortical tissue was homogenized in ice cold 50 mM Tris HCl buffer (pH 7.4) using a Brinkman Polytron. The homogenate was centrifuged at 48,000 x g for 10 minutes and the resulting tissue pellet was suspended in fresh cold buffer to yield a tissue concentration of 10 mg (wet weight)/ml. This tissue suspension was incubated for 30 minutes at 37° C. in the presence of adenosine deaminase (0.2 I.U./mg tissue). Following this incubation, the tissue suspension was centrifuged as before and the resulting pellet was suspended in fresh buffer at a concentration of 7-10 mg tissue (wet weight)/ml. Inhibition of the specific binding of [^3 H]CHA (New England Nuclear; 25 Ci/mmol) was examined in a total volume of 2 ml containing 50 mM Tris HCl, 7-10 mg of cortical tissue (1 ml of tissue suspension), 4 nM [^3 H]CHA and various concentrations of the test compounds. Nonspecific binding was determined in the presence of 10^-5 M 2-chloroadenosine. The binding reaction was carried out for 120 minutes at 23° C. and was terminated by vacuum filtration over Whatman GF/B filters using a Brandel M-48R Cell Harvester. The filters were washed 3 times with 3 ml of cold buffer and placed in scintillation vials in a Beckman LS 3801 scintillation counter. Dose-inhibition curves were generated with 10-12 concentrations of the test compound using triplicate incubations. The inhibition constants (Ki value) were calculated using EBDA, a log-logit iterative curve fitting program (McPhearson, Comput. Prog. Biomed. 107:220, 1983).
# [5] = target: T2, A1 receptor (Rattus norvegicus, UniProt P25099); experiment: biochemical; conditions: for Ki: Schild analysis, A1 receptor mediated inhibition of adenylate cyclase; for Adenylate cyclase A2 /A1: ratio of A2 Ki to A1 Ki
# T2 sequence (P25099 1-326): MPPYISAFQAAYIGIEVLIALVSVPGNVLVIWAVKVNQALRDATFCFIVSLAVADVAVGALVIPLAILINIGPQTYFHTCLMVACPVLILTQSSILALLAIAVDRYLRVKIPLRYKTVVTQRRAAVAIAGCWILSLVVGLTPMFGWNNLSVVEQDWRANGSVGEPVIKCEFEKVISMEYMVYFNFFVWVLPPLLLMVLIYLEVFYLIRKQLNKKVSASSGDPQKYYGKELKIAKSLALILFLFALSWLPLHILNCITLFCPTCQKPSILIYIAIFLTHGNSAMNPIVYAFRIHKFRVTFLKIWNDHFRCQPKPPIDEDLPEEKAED
# Description: The A1 receptor mediated inhibition of adenylate cyclase activity was measured by a modification of the procedure of Londos et al. (Proc. Natl. Acad. Sci. 75: 5362, 1978). Membrane protein (10-15 μg) was added to a reaction mixture containing a final concentration of 25 mM Tris-HCl (pH 7.4), 2 mM MgCl2 50 μM ATP, 50 μM cAMP, 1 mM dithiothreitol, 0.25 mg/ml BSA, 1 IU/ml adenosine deaminase, 5 mM creatine phosphate, 0.2 mg/ml creatine phosphokinase, 80 mM NaCl, [α^32 P]ATP (1.5 c 10^-6 DPM) and 100M GTP in 100 μl final volume. Incubations were carried out for 10 minutes at 24° C.
# as §1
# [6] = test system: NECA-induced depression of force and rate of an isolated guinea pig heart; experiment: NECA Depressed Langendorff Heart; conditions: for IC50: guinea pig; for NECA - Depressed Langendorff Heart Force/Rate: ratio of force to rate TC50
# Description: NECA Depressed Langendorff Heart. Hearts were rapidly excised from male guinea-pigs and transferred to a beaker containing a Krebs-bicarbonate solution at 5° C. Each heart was gently massaged to clear it of blood and clots, and the surrounding tissue was cut away. The cut aortic stump was secured to a glass cannula for retrograde perfusion of the coronary circulation.
# Perfusion was at a constant rate of 5-7 ml/min, produced with a Holter peristaltic pump. […] Alterations in perfusion pressure arising from changes in coronary vascular resistance were recorded on a Gould recorder by means of Gould pressure transducers attached at a sidearm of the aortic cannula. Isometric contractions of the heart were recorded with a Grass transducer attached by a suture via a pulley to a clip on the apex of the ventricles. Rates of contraction were determined by counting heart beats.
# Drugs were added directly into the perfusion solutions. Drug concentrations were changed by switching solutions. Cardiac functions were depressed with NECA or adenosine by infusing a solution of one or the other ([…]) into the perfusion solution through an injection port located immediately adjacent to the warming coil. IC50 is defined as the concentration of compound that will cause 50 percent inhibition of the NECA-induced depression of force and rate of an isolated guinea pig heart.
# [7] = test system: animals; conditions: in vivo; cited from earlier work
# [8] = Solubility (mg/ml) 37° C.
# [9] = test system: adenosine (A1) receptor; conditions: cited from earlier work
# [10] = 50 percent inhibition of the NECA-induced depression of force, read-out: NECA - Depressed Langendorff Heart TC50 Force
# [11] = 50 percent inhibition of the NECA-induced depression of rate, read-out: NECA - Depressed Langendorff Heart TC50 Rate
# Chain of A2 receptor (P30543 whole entry): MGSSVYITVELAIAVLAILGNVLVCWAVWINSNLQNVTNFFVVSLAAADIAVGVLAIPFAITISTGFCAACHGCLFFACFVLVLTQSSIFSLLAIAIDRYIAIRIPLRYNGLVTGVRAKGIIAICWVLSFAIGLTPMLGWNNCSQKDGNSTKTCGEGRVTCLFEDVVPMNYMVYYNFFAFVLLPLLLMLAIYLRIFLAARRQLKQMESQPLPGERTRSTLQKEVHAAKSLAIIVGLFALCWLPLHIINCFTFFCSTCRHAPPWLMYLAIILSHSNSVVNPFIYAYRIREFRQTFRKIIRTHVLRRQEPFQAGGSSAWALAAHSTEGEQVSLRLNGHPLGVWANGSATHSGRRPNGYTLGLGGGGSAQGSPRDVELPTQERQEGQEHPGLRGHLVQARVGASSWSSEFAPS
SMILES,Ki [3] [nM],Ki [4] [nM],Ki [5] [nM],Adenylate cyclase A2 /A1 [5],solubility [8] [µg/mL],selectivity after introduction of the sulfonyl group [1],potency relative to 8-phenyltheophylline [2] [fold],"IC50 [6, 10] [nM]","IC50 [6, 11] [nM]",NECA - Depressed Langendorff Heart Force/Rate [6],overt activity in animals [7],selectivity toward A1 adenosine receptor [9],"force and rate properties / effect on force and rate of contraction (in words) ([6]; NECA depressed Langendorff heart, guinea pigs)"
"Cn1c(=O)c2[nH]c(-c3ccc(S(=O)(=O)O)cc3)nc2n(C)c1=O [(II), 8-[4-sulfophenyl]-theophylline]",–,–,–,–,–,decrease in selectivity,3,–,–,–,–,–,–
"Cl.Cn1c(=O)c2[nH]c(-c3ccc(C(=N)N)cc3)nc2n(C)c1=O.O [Me Me H C(NH)NH2, 1,3-Dimethyl-8-(4-amidinophenyl)xanthine hydrochloride hydrate]",523,1140,244,2.1,–,–,–,2010,15600,0.13,–,–,–
"CNC(=N)c1ccc(-c2nc3c([nH]2)c(=O)n(C)c(=O)n3C)cc1 [Me Me H C(NH)NHMe, 1,3-Dimethyl-8-(4-N-methylamidinophenyl)xanthine hydrochloride hydrate]",–,1840,–,–,–,–,–,3640,18400,0.20,–,–,–
"CCCn1c(=O)c2[nH]c(-c3ccc(CN)cc3)nc2n(CCC)c1=O.Cl.O [Pr Pr H CH2 NH2, 1,3-Dipropyl-8-(4-aminomethylphenyl)xanthine hydrochloride hydrate]",432,66.8,16.3,26,500,–,–,570,2000,0.28,–,–,–

# Continued, in another order:
Ki [3] [nM],Ki [4] [nM],Ki [5] [nM],Adenylate cyclase A2 /A1 [5],solubility [8] [µg/mL],SMILES,selectivity after introduction of the sulfonyl group [1],potency relative to 8-phenyltheophylline [2] [fold],"IC50 [6, 10] [nM]","IC50 [6, 11] [nM]",NECA - Depressed Langendorff Heart Force/Rate [6],overt activity in animals [7],selectivity toward A1 adenosine receptor [9],"force and rate properties / effect on force and rate of contraction (in words) ([6]; NECA depressed Langendorff heart, guinea pigs)"
421,45,12.6,33.4,< 0.4,"CCCn1c(=O)c2[nH]c(-c3ccc(Cl)cc3N)nc2n(CCC)c1=O [PACPX, reference compound]",–,–,1110,180,6.17,little overt activity in animals,selective toward A1 --adenosine receptor,unfavorable force and rate properties
664,169,88.7,7,25000,"CCCn1c(=O)c2[nH]c(-c3ccc(O)c(CN(C)C)c3)nc2n(CCC)c1=O [Pr Pr CH2 NMe2 OH, 1,3-Dipropyl-8-(3-N,N-dimethylaminomethyl-4hydroxyphenyl)xanthine hydrochloride hydrate]",–,–,1490,2060,0.72,–,–,–
309,81,9.7,31.9,3000,"CCCn1c(=O)c2[nH]c(-c3ccc(C(=N)N)cc3)nc2n(CCC)c1=O [Pr Pr H C(NH)NH2, 1,3-Dipropyl-8-(4-amidinophenyl)xanthine hydrochloride hemi-hydrate]",–,–,1400,7030,0.20,–,–,–
140,129,12,11.7,1000,"CCCn1c(=O)c2[nH]c(-c3ccc(C(=N)NC)cc3)nc2n(CCC)c1=O [Pr Pr H C(NH)NHMe, 1,3-Dipropyl-8-(4-N-methylamidinophenyl)xanthine hydrochloride hydrate]",–,–,1470,3770,0.39,–,–,–
529,423,26.9,20,–,"CCCn1c(=O)c2[nH]c(-c3ccc(C(=O)OCC)cc3)nc2n(CCC)c1=O [Pr Pr H COOEt, 1,3-Dipropyl-8-(4-carboethoxyphenyl)xanthine]",–,–,4780,7840,0.61,–,–,–
131,86,–,–,80,"CCCn1c(=O)c2[nH]c(-c3ccc(NC(=O)N(C)C)cc3)nc2n(CCC)c1=O [Pr Pr H NHC(=O)NMe2, 1,3-Dipropyl-8-(4-N,N-dimethylureidophenyl) xanthine]",–,–,360,980,0.61,–,–,–
–,–,–,–,250,"CCCn1c(=O)c2[nH]c(-c3cccc(OCC(O)CO)c3)nc2n(CCC)c1=O (stereo not shown) [Pr Pr OCH2 (CH2 OH)2 H, 1,3-Dipropyl-8-[3-(2,3-dihydroxypropyloxy)phenyl]xanthine]",–,–,490,1040,0.47,–,–,–
